Data published in patent US20180369186A1, “METHOD FOR MODULATING AUTOPHAGY AND APPLICATIONS THEREOF” (JAWAHARLAL NEHRU CENTRE FOR ADVANCED SCIENTIFIC RESEARCH, priority 2015, published 2018).

How the values were obtained:
p62 = p62 co-localization with mRFP-MAP1LC3B in HeLa cells; assay type: cell-based, human
Experimental: Appropriate number of cells are plated on top of coverslips placed in 65 mm cell culture dishes for transfection. Transfected cells are divided into different treatment groups. Post treatment, cells are washed with PBS and fixed in 4% paraformaldehyde and permeabilized using 0.25% Triton X-100, Overnight incubation with Anti-p62/SQSTM1 (rabbit polyclonal, #PM045), Anti-EEA1 (rabbit polyclonal, CST #3288) is done at 4° C. Excess antibody is washed with PBS and coverslips are incubated with Atto-633 (goat anti-rabbit IgG, Sigma #41176). The coverslips are mounted with […] antifade reagent (H-1000/H-1200, Vector laboratories). Imaging for HeLa cells is carried out using Delta vision microscope (Olympus 60×/1.42, Plan ApoN, excitation and emission filter Cy5, FITC and TRITC, polychroic Quad).
ImageJ software (NIH) is used to calculate the mean intensity. Images are opened using the split channel plugin. Co-localization plugin in the analysis tools is used to obtain the colocalized area between two channels as a separate window. The intensity is calculated using the measure plugin in analysis tools.

aminopeptidase = experiment: Protease protection assay with aminopeptidase; assay type: cell-based, S. cerevisiae; conditions: starvation
Experimental: To elucidate the step of action of Bay11, a protease protection assay is performed using aminopeptidase as a marker, which is also a substrate for starvation-induced autophagy. Untreated cells in presence of proteinase K show both the precursor as well as the matured form due to the autophagosome-sequestered membrane-protected cargo and the cytosolic free form, respectively (FIGS. 22D and 22E). […] Combined treatment with Proteinase K and triton X-100 results in conversion of all the precursor form to the matured form in both treated and untreated groups.

Atg8 and Atg5 = experiment: Co-localization of GFP-Atg8 and Atg5-RedStar in yeast; assay type: cell-based, S. cerevisiae
[1] = system: SH-SY5Y cells (autophagosomes and autolysosomes); experiment: Tandem RFP-EGFP-LC3 assay in SH-SY5Y cells; assay type: cell-based, human; conditions: 2 h
Experimental: Sub-confluent HeLa and/or SH-SY5Y cells are seeded into 60 mm cell culture dishes, then transfected with ptf LC3 construct and/or siRNA and allowed to express for 48 h. Cells are trypsinized, seeded again on poly-D-lysine coated cover slips in a 12 or 24 well plates and allowed to attach. After appropriate treatments, the coverslips containing cells are processed for imaging. For immunofluorescent antibody staining, the cover slips are incubated in primary antibody at 4° C. for overnight followed by secondary antibody incubation at room temperature.
For imaging the mammalian cells, after appropriate treatments, coverslips containing cells are fixed using 4% paraformaldehyde (PFA) (Sigma) and then permeabilized using Triton X-100 (0.2%, HiMedia). On slide, coverslips are mounted using antifade, Vectashield mounting medium (Vector laboratories). For antibody staining, coverslips are blocked using 5% BSA for 1 h at room temperature, then incubated with primary antibody at 4° C., overnight and then subsequently probed with corresponding fluorescent dye conjugated secondary antibody.

LC3-II = experiment: LC3 processing assay in SH-SY5Y cells; assay type: cell-based, human; conditions: 5 μM, 2 h; untreated vs treated
Experimental: The autophagy assays are performed by seeding equal numbers of sub-confluent 1-HeLa or SH-SY5Y cells in 6-well dishes and allowed to attach for 24 h, then treated with XCT 790 (5 μM) and/or 3-MA (5 mM) and/or lithium chloride (10 mM) in fed condition for 2 h. After treatments, the cell lysates are analyzed by immunoblotting.
Mammalian cell lysates preparation: After treatments, cells are collected in Laemmli buffer to perform LC3 processing assay, P70S6K, AMPK, ULK1 and 4E-BP1 immunoblotting. Samples are electrophoresed onto SDS-PAGE (8-15%) and then transferred onto PVDF (Bio-Rad) membrane through Transblot turbo (Bio-Rad). Blots are stained with Ponceau S, then probed with appropriate primary antibodies at 4° C. for overnight and subsequently HRP-conjugated secondary antibody. Signals are attained using enhanced chemiluminescence substrate (Clarity, Bio-Rad) and imaged using a gel documentation system (G Box, Syngene) and then bands are quantitated using Image software (NIH).

SMILES	p62 accumulation relative to mRFP-MAP1LC3B-positive compartments (p62)	form of aminopeptidase upon proteinase K treatment (aminopeptidase)	Atg5 punctate structures (Atg8 and Atg5; vs single puncta in untreated cells)	co-localization between Atg8 and Atg5 dots (Atg8 and Atg5; vs untreated cells)	autolysosomes, fold vs control [1]	autophagosomes, fold vs control [1]	accumulation of LC3-II levels (LC3-II)
Cc1ccc(S(=O)(=O)/C=C/C#N)cc1 [Bay11, 3-[(4-methylphenyl)sulfonyl]-(2E)-propenenitrile]	outside	only the mature form of aminopeptidase	multiple puncta	significantly more co-localization			
COc1cc(C=C(C#N)C(=O)Nc2nnc(C(F)(F)F)s2)ccc1OCc1ccc(C(F)(F)F)cc1C(F)(F)F [XCT 790, 3-[4-(2,4-Bis-trifluoromethylbenzyloxy)-3-methoxyphenyl]-2-cyano-N-(5-trifluoromethyl-1,3,4-thiadiazol-2-yl)acrylamide]					~4 fold	~2 fold	~2.5 fold
